Reference: ChEMBL document CHEMBL6103604, “Novel Bicyclic Amines as CDK2 Inhibitors for Treating Metastatic Breast Cancer or Metastatic Lung Cancer” (ACS Med Chem Lett, 2025)

The molecules below were run against Cyclin-dependent kinase 2/cyclin E1 (Homo sapiens, UniProt P24941) (assay: Inhibition of N-terminal GST-tagged wild-type full-length human CDK2 (1 to 298 residues)/FLAG-tagged human Cyclin E1 (1 to 410 residues) extracted from baculovirus infected Sf21 cells using ULight-labeled eIF4E-binding protein-1 as substrate incubated for 60 mins in the presence of ATP by HTRF assay).

IC50, ≤ 10 nM:
C[C@@H](Oc1c(-c2cn[nH]c2)ccn2nc(NC3CCOCC3)nc12)C(F)F, C[C@@H](Oc1c(-c2cn[nH]c2)ccn2nc(NC3CCOCC3)nc12)C(F)(F)F, CC(C)Oc1c(-c2cn[nH]c2)ccn2nc(NC3CCOCC3)nc12, CC(C)Oc1c(-c2cn[nH]c2)ncn2nc(NC3CCOCC3)nc12, C[C@@H](Oc1c(-c2cn[nH]c2)ncn2nc(NC3CCOCC3)nc12)C(F)F, C[C@@H](Oc1c(-c2cn[nH]c2)ncn2nc(NC3CCOCC3)nc12)C(F)(F)F
